Common to all, as to test: relative viability (nuclei count vs DMSO), 5 days (fraction); higher = more cells survive
Compound in the test “Kobe2602 + Tozasertib”: C1=CC(=CC=C1NC(=S)NNC2=C(C=C(C=C2[N+](=O)[O-])C(F)(F)F)[N+](=O)[O-])F [Kobe2602] + Cc1cc(Nc2cc(N3CCN(C)CC3)nc(Sc3ccc(NC(=O)C4CC4)cc3)n2)n[nH]1 [Tozasertib] (partner 0.1 µM)
In a few lines:
(§1)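 Relative viability equals treated-well nuclei counts divided by vehicle-well nuclei counts. Counts came from 4× images of lung cancer cell lines grown in 1536-well plates for 5 days after pin-tool dosing on the day after seeding. Dosing used one drug alone or a fixed anchor-drug dose plus five library-drug doses (not always all listed) in √10 steps, and values are medians of duplicate plates.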

Compound in the test “Zosuquidar + Dasatinib”: O[C@@H](COc1cccc2ncccc12)CN1CCN([C@@H]2c3ccccc3[C@@H]3[C@H](c4ccccc42)C3(F)F)CC1 [Zosuquidar] + Cc1nc(Nc2ncc(C(=O)Nc3c(C)cccc3Cl)s2)cc(N2CCN(CCO)CC2)n1 [Dasatinib] (partner 0.075 µM)
In short, it runs like this: as §1

Compound in test [1]: COc1cc2nccc(Oc3ccc(NC(=O)C4(C(=O)Nc5ccc(F)cc5)CC4)cc3)c2cc1OC [Cabozantinib] + CC(=O)Nc1cccc(-n2c(=O)n(C3CC3)c(=O)c3c(Nc4ccc(I)cc4F)n(C)c(=O)c(C)c32)c1 [Trametinib] (partner 0.02 µM)
In a few lines: as §1

Compound in test [2]: COc1cc2nccc(Oc3ccc(NC(=O)C4(C(=O)Nc5ccc(F)cc5)CC4)cc3)c2cc1OC [Cabozantinib] + Nc1nc2[nH]cc(CCc3ccc(C(=O)N[C@@H](CCC(=O)O)C(=O)O)cc3)c2c(=O)[nH]1 [Pemetrexed] (partner 0.2 µM)
In a few lines:
as §1

Consider eight cell lines from the supplement of paper PMC10307832.

For the cell line 201T, the relative viability stood at 0.94 with Kobe2602 + Tozasertib (first compound 0.2 µM); 0.968 in the test with Kobe2602 + Tozasertib (first compound 0.6325 µM); 0.966 in the test with Kobe2602 + Tozasertib (first compound 2 µM); 0.924 in the test with Kobe2602 + Tozasertib (first compound 6.325 µM); 0.881 with Kobe2602 + Tozasertib (first compound 20 µM); 0.611 with Zosuquidar + Dasatinib (first compound 0.01 µM). Moreover, the relative viability came out at 0.551 in the test with Zosuquidar + Dasatinib (first compound 0.03162 µM); 0.526 with Zosuquidar + Dasatinib (first compound 0.1 µM); 0.632 in the test with Zosuquidar + Dasatinib (first compound 0.3162 µM); 0.581 with Zosuquidar + Dasatinib (first compound 1 µM); 0.71 in test [1] (first compound 0.02 µM); 0.731 in test [1] (first compound 0.06325 µM). In addition, the relative viability was determined as 0.686 in test [1] (first compound 0.2 µM); 0.729 in test [1] (first compound 0.6325 µM); 0.727 in test [1] (first compound 2 µM); 0.311 in test [2] (first compound 0.02 µM); 0.351 in test [2] (first compound 0.06325 µM); 0.305 in test [2] (first compound 0.2 µM). The relative viability in test [2] (first compound 0.6325 µM) turned out to be 0.336; in test [2] (first compound 2 µM) it was 0.313.
Consider A-427, for which the relative viability with Kobe2602 + Tozasertib (first compound 0.2 µM) came to 0.233; with Kobe2602 + Tozasertib (first compound 0.6325 µM) it was 0.242; in the test with Kobe2602 + Tozasertib (first compound 2 µM), 0.198; with Kobe2602 + Tozasertib (first compound 6.325 µM), 0.229; with Kobe2602 + Tozasertib (first compound 20 µM), 0.218; in the test with Zosuquidar + Dasatinib (first compound 0.01 µM) it was 0.603. In addition, the relative viability stood at 0.684 with Zosuquidar + Dasatinib (first compound 0.03162 µM); 0.634 with Zosuquidar + Dasatinib (first compound 0.1 µM); 0.709 with Zosuquidar + Dasatinib (first compound 0.3162 µM); 0.8 with Zosuquidar + Dasatinib (first compound 1 µM); 0.729 in test [1] (first compound 0.02 µM); 0.801 in test [1] (first compound 0.06325 µM). For the same cell line, the relative viability in test [1] (first compound 0.2 µM) is 0.772; in test [1] (first compound 0.6325 µM), 0.762; in test [1] (first compound 2 µM) it was 0.743; in test [2] (first compound 0.02 µM), 0.949; in test [2] (first compound 0.06325 µM), 1.04; in test [2] (first compound 0.2 µM) it was 0.995. For the same cell line, the values for the relative viability in test [2] (first compound 0.6325 µM) and in test [2] (first compound 2 µM) were 1.02 and 1, respectively.
Turning to ABC-1, the relative viability with Kobe2602 + Tozasertib (first compound 0.2 µM) was determined as 0.201; with Kobe2602 + Tozasertib (first compound 0.6325 µM), 0.181; with Kobe2602 + Tozasertib (first compound 6.325 µM) it was 0.216; with Kobe2602 + Tozasertib (first compound 20 µM), 0.215; in the test with Zosuquidar + Dasatinib (first compound 0.01 µM) it was 0.625; in the test with Zosuquidar + Dasatinib (first compound 0.03162 µM), 0.592. The results for the relative viability with Zosuquidar + Dasatinib (first compound 0.1 µM), in the test with Zosuquidar + Dasatinib (first compound 0.3162 µM) and with Zosuquidar + Dasatinib (first compound 1 µM) were 0.575, 0.766 and 0.532, respectively.
Regarding BEN, the relative viability in the test with Kobe2602 + Tozasertib (first compound 0.2 µM) turned out to be 0.56; with Kobe2602 + Tozasertib (first compound 0.6325 µM), 0.518; with Kobe2602 + Tozasertib (first compound 2 µM), 0.491; with Kobe2602 + Tozasertib (first compound 6.325 µM), 0.666; with Kobe2602 + Tozasertib (first compound 20 µM), 0.555; in the test with Zosuquidar + Dasatinib (first compound 0.01 µM) it was 0.31. The relative viability came to 0.281 with Zosuquidar + Dasatinib (first compound 0.03162 µM); 0.299 with Zosuquidar + Dasatinib (first compound 0.1 µM); 0.314 with Zosuquidar + Dasatinib (first compound 0.3162 µM); 0.258 in the test with Zosuquidar + Dasatinib (first compound 1 µM); 0.979 in test [1] (first compound 0.02 µM); 1.08 in test [1] (first compound 0.06325 µM). Besides, the relative viability in test [1] (first compound 0.2 µM) worked out at 0.998; in test [1] (first compound 0.6325 µM), 0.982; in test [1] (first compound 2 µM), 0.77; in test [2] (first compound 0.02 µM), 0.65; in test [2] (first compound 0.06325 µM), 0.914; in test [2] (first compound 0.2 µM) it was 0.781. Further, the relative viability came to 0.851 in test [2] (first compound 0.6325 µM) and 0.698 in test [2] (first compound 2 µM).
Consider CAL-12T, for which the relative viability with Kobe2602 + Tozasertib (first compound 0.2 µM) amounted to 0.292; with Kobe2602 + Tozasertib (first compound 0.6325 µM), 0.282; with Kobe2602 + Tozasertib (first compound 2 µM), 0.248; with Kobe2602 + Tozasertib (first compound 6.325 µM), 0.21; in the test with Kobe2602 + Tozasertib (first compound 20 µM) it was 0.244; in the test with Zosuquidar + Dasatinib (first compound 0.01 µM), 0.355. In addition, the relative viability with Zosuquidar + Dasatinib (first compound 0.03162 µM) turned out to be 0.397; in the test with Zosuquidar + Dasatinib (first compound 0.1 µM), 0.38; in the test with Zosuquidar + Dasatinib (first compound 0.3162 µM) it was 0.606; with Zosuquidar + Dasatinib (first compound 1 µM), 0.443; in test [1] (first compound 0.02 µM) it was 0.331; in test [1] (first compound 0.06325 µM), 0.357. The relative viability was found to be 0.33 in test [1] (first compound 0.2 µM); 0.371 in test [1] (first compound 0.6325 µM); 0.365 in test [1] (first compound 2 µM); 1.37 in test [2] (first compound 0.02 µM); 1.14 in test [2] (first compound 0.06325 µM); 1.25 in test [2] (first compound 0.2 µM). Moreover, the relative viability was determined as 1.19 in test [2] (first compound 0.6325 µM) and 1.09 in test [2] (first compound 2 µM).
Turning to COR-L23, the relative viability in the test with Kobe2602 + Tozasertib (first compound 0.2 µM) was 0.177; with Kobe2602 + Tozasertib (first compound 0.6325 µM), 0.172; with Kobe2602 + Tozasertib (first compound 2 µM), 0.165; with Kobe2602 + Tozasertib (first compound 6.325 µM), 0.157; in the test with Kobe2602 + Tozasertib (first compound 20 µM), 0.154; in the test with Zosuquidar + Dasatinib (first compound 0.01 µM) it was 0.459. In addition, the relative viability in the test with Zosuquidar + Dasatinib (first compound 0.03162 µM) came to 0.474; with Zosuquidar + Dasatinib (first compound 0.1 µM) it was 0.474; with Zosuquidar + Dasatinib (first compound 0.3162 µM), 0.581; with Zosuquidar + Dasatinib (first compound 1 µM), 0.485; in test [1] (first compound 0.02 µM), 0.666; in test [1] (first compound 0.06325 µM) it was 0.679. The relative viability in test [1] (first compound 0.2 µM) amounted to 0.679; in test [1] (first compound 0.6325 µM), 0.623; in test [1] (first compound 2 µM), 0.576; in test [2] (first compound 0.02 µM) it was 0.215; in test [2] (first compound 0.06325 µM), 0.197; in test [2] (first compound 0.2 µM) it was 0.191. Moreover, the relative viability came out at 0.185 in test [2] (first compound 0.6325 µM) and 0.193 in test [2] (first compound 2 µM).
As for COR-L 105, the relative viability in the test with Kobe2602 + Tozasertib (first compound 0.2 µM) stood at 0.364; with Kobe2602 + Tozasertib (first compound 0.6325 µM), 0.322; with Kobe2602 + Tozasertib (first compound 2 µM), 0.371; with Kobe2602 + Tozasertib (first compound 6.325 µM), 0.401; in the test with Kobe2602 + Tozasertib (first compound 20 µM), 0.366; with Zosuquidar + Dasatinib (first compound 0.01 µM), 0.353. The relative viability was 0.334 in the test with Zosuquidar + Dasatinib (first compound 0.03162 µM); 0.341 in the test with Zosuquidar + Dasatinib (first compound 0.1 µM); 0.358 with Zosuquidar + Dasatinib (first compound 0.3162 µM); 0.279 in the test with Zosuquidar + Dasatinib (first compound 1 µM); 0.422 in test [1] (first compound 0.02 µM); 0.377 in test [1] (first compound 0.06325 µM). Further, the relative viability in test [1] (first compound 0.2 µM) came out at 0.4; in test [1] (first compound 0.6325 µM) it was 0.405; in test [1] (first compound 2 µM), 0.481; in test [2] (first compound 0.02 µM), 1.1; in test [2] (first compound 0.06325 µM), 1.19; in test [2] (first compound 0.2 µM), 0.9. The results for the relative viability in test [2] (first compound 0.6325 µM) and in test [2] (first compound 2 µM) were 0.999 and 1.02, respectively.
Regarding ChaGo-K-1, the relative viability with Kobe2602 + Tozasertib (first compound 0.2 µM) is 0.251; in the test with Kobe2602 + Tozasertib (first compound 0.6325 µM), 0.244; with Kobe2602 + Tozasertib (first compound 2 µM) it was 0.226; with Kobe2602 + Tozasertib (first compound 6.325 µM), 0.227; with Kobe2602 + Tozasertib (first compound 20 µM), 0.245; with Zosuquidar + Dasatinib (first compound 0.01 µM), 0.615. Besides, the relative viability with Zosuquidar + Dasatinib (first compound 0.03162 µM) worked out at 0.583; with Zosuquidar + Dasatinib (first compound 0.1 µM), 0.602; with Zosuquidar + Dasatinib (first compound 0.3162 µM), 0.737; with Zosuquidar + Dasatinib (first compound 1 µM), 0.624; in test [1] (first compound 0.02 µM), 0.838; in test [1] (first compound 0.06325 µM), 0.906. Besides, the relative viability turned out to be 0.928 in test [1] (first compound 0.2 µM); 0.893 in test [1] (first compound 0.6325 µM); 0.899 in test [1] (first compound 2 µM); 0.261 in test [2] (first compound 0.02 µM); 0.261 in test [2] (first compound 0.06325 µM); 0.255 in test [2] (first compound 0.2 µM). Moreover, the values for the relative viability in test [2] (first compound 0.6325 µM) and in test [2] (first compound 2 µM) were 0.26 and 0.263, respectively.
